In US20080021069A1, “Receptor Function Regulating Agent” (TAKEDA PHARMACEUTICAL COMPANY LIMITED, priority 2004, published 2008):

Columns and labels:
[1] = tested on: rat pancreatic islet; experiment: Insulin secretion suppressive activity using rat pancreatic islet (palmitic acid stimulation); format: cell-based; conditions: glucose 16 mM, compound 10 μM, 30 min, mean ± SD (n = 4)
Method: The effect of the compound of the present invention on the insulin secretion from the rat pancreatic islet, which is induced by palmitic acid stimulation, was evaluated.
Male SD rats (7-week-old, Clea Japan, Inc.) were anesthetized with Nembutal (50 mg/kg, i.p.) and subjected to laparotomy. While confirming and following the course of the common bile duct to the peripheral thereof, and the duct was ligated at the liver side immediately from the opening of the duodenum. Then, the common bile duct was detached from the surrounding tissue on the duodenum side from the hepatic duct bifurcation and a thread was placed thereon. An indwelling needle (22G, manufactured by TERUMO CORPORATION) was inserted into the common bile duct at a position on the liver side from this part and fixed by ligation with the thread placed earlier thereon. 10 ml of 150 mg/ml collagenase (manufactured by Wako Pure Chemical Industries, Ltd., for cell dispersion)-Hank's Balanced Salt Solution (HBSS, manufactured by Invitrogen)-1% Bovine Serum Albumin (BSA, manufactured by Wako Pure Chemical Industries, Ltd.) −0.01 mg/ml DnaseI (manufactured by Roche Molecular Biochemicals)-2.5% N-2-Hydroxyethylpiperazine-N′-2-Ethane Sulfonic Acid (HEPES, manufactured by Invitrogen) was injected from the common bile duct. […]

[2] = biological target: T1, human GPR40 (Homo sapiens, UniProt O14842); experiment: GPR40 antagonist activity with changes in intracellular calcium concentration as index (NFAT-luciferase reporter, CHO(dhfr-)/GPR40-NFAT-Luc cells); format: cell-based; conditions: CHO cell line expressing human GPR40, NFAT-Luc reporter; GPR40 agonist 3-(4-((6-benzyloxy-2',6'-dimethyl-biphenyl-3-yl)methoxy)phenyl)propanoic acid 40 nM; 4 hr culture; 0.1% fatty acid-free BSA
T1 construct: expressed in transfected cells; host or cells: CHO(dhfr-) cells: line CHO-hGPR40 No. 104 of WO2004/041266, with a stably expressed NFAT-TA-Luc reporter (CHO(dhfr-)/GPR40-NFAT-Luc)
From the text: Evaluation of GPR40 antagonist activity with changes in intracellular calcium concentration as index
An assay system of GPR40 antagonist was established as follows. In this assay system, as the GPR40 agonist, 3-(4-((6-benzyloxy-2′,6′-dimethyl-biphenyl-3-yl)methoxy)phenyl)propanoic acid (compound described in Example 340 of WO2004/041266) was used.
First, NFAT-TA was cut out from pNFAT-TA-Luc (manufactured by BD Bioscience Clontech) with HindIII and NheI, the recovered fragment was inserted into pGL3 basic neo digested with HindIII and NheI to give plasmid:pGL3 basic neo NFAT-TA-Luc.
This plasmid was used for “the CHO cell line (CHO-hGPR40 No. 104), which was made to express human GPR40” described in WO2004/041266, and a cell line CHO(dhfr-)/GPR40-NFAT-Luc, wherein a reporter gene was stably expressed by a method known per se, was prepared.
This cell line was diluted with a medium (nucleic acid-free MEM (Minimum Essential Medium)—α medium added with dialyzed FBS (Fetal Bovine Serum) to a final concentration of 10%) in such a manner that 2×10^4 cells/100 μl would be contained, dispensed to a white walled 96 well plate (manufactured by Coster) by 100 μl per well, and cultured overnight in a CO2 incubator. Then the medium was removed by suction from the 96 well plate, and a 10 mM test compound-dimethyl sulfoxide (manufactured by Wako Pure Chemical Industries, Ltd.) solution diluted with a medium (nucleic acid-free MEM—α medium added with bovine serum albumin (BSA) free of fatty acid to a final concentration of 0.1%) to each concentration was added by 50 μl per well. Further, 3-(4-((6-benzyloxy-2′,6′-dimethyl-biphenyl-3-yl)methoxy)phenyl)propanoic acid diluted with a medium (nucleic acid-free MEM-α (medium added with BSA free of fatty acid to a final concentration of 0.1%) to a final concentration of 40 nM was added to the 96 well plate by 50 μl per well.
After culture in a CO2 incubator for 4 hr, the culture medium was removed from the 96 well plate. Then, PicaGene (manufactured by TOYO INK MFG. CO., LTD.) was added to the 96 well plate, and the luciferase activity was determined using PerkinElmer ARVO (trade name, manufactured by PerkinElmer), based on which changes in the intracellular calcium concentration were evaluated. After assay of luciferase activity, nonlinear regression analysis was performed using PRISM 3 (trade name, manufactured by GraphPad) and IC50 value was calculated with changes in the intracellular calcium concentration as an index.
In the same manner as in Experimental Example 1, the IC50 value of the compound of the present invention was calculated.

T1 sequence (O14842 whole entry): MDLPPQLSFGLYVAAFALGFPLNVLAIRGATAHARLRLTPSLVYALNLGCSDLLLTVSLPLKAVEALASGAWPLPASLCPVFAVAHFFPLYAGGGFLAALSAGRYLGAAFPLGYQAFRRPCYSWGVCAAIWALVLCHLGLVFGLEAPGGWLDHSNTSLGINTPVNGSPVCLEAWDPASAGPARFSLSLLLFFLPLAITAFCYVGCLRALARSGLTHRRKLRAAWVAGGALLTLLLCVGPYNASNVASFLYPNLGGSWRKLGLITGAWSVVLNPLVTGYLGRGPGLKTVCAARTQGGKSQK

IC50 [2] | melting point | SMILES | insulin secretion amount ([1]; palmitic acid 0 mM) | insulin secretion amount ([1]; palmitic acid 1 mM)
< 100 nM | 90 to 92 °C | FC(F)(F)COc1ccc(-n2c(SCc3ccc(Cl)cc3)nc3cc(Cl)c(Cl)cc32)cc1 [Example 131, 5,6-Dichloro-2-[(4-chlorobenzyl)thio]-1-[4-(2,2,2-trifluoroethoxy)phenyl]-1H-benzimidazole] |  | 
< 100 nM | 104 to 112 °C | CCCOc1ccc(-n2c(SCc3ccc(Cl)cc3)nc3cc(Cl)ccc32)cc1.Cl [Example 121, 5-Chloro-2-[(4-chlorobenzyl)thio]-1-(4-propoxyphenyl)-1H-benzimidazole hydrochloride] |  | 
< 100 nM | 131 to 132 °C | CCOc1ccc(-n2c(SCc3ccc(Cl)cc3)nc3cc(Cl)c(Cl)cc32)cc1 [Example 111, 5,6-Dichloro-2-[(4-chlorobenzyl)thio]-1-(4-ethoxyphenyl)-1H-benzimidazole] |  | 
< 100 nM | 118 to 120 °C | FC(F)(F)COc1ccc(-n2c(NCc3ccc(Br)cc3)nc3cc(Cl)c(Cl)cc32)cc1 [Example 103, N-(4-Bromobenzyl)-5,6-dichloro-1-[4-(2,2,2-trifluoroethoxy)phenyl]-1H-benzimidazol-2-amine] |  | 

The remaining lines, values behind:

SMILES | IC50 [2] | melting point | insulin secretion amount ([1]; palmitic acid 0 mM) | insulin secretion amount ([1]; palmitic acid 1 mM)
CCOc1ccc(-n2c(SCc3ccc(Cl)cc3)nc3ccc(Cl)cc32)cc1 [Example 10, 6-chloro-2-[(4-chlorobenzyl)thio]-1-(4-ethoxyphenyl)-1H-benzimidazole] | < 100 nM | 129 to 130 °C | 353 ± 122 pg/ng DNA | 369 ± 141 pg/ng DNA
CCCCOc1ccc(-n2c(NCc3ccc(Br)cc3)nc3cc(Cl)c(Cl)cc32)cc1 [Example 100, 1-(4-Butoxyphenyl)-5,6-dichloro-N-(4-bromobenzyl)-1H-benzimidazol-2-amine] | < 100 nM | 161 to 162 °C |  | 
CCOc1ccc(-n2c(SCc3ccc(C(C)(C)C)cc3)nc3ccc(Cl)cc32)cc1 [Example 38, 2-[(4-tert-butylbenzyl)thio]-6-chloro-1-(4-ethoxyphenyl)-1H-benzimidazole] | < 100 nM | 142 to 143 °C |  | 
CCCOc1ccc(-n2c(NCc3ccc(C(C)(C)C)cc3)nc3cc(Cl)c(Cl)cc32)cc1 [Example 96, N-(4-tert-Butylbenzyl)-5,6-dichloro-1-(4-propoxyphenyl)-1H-benzimidazol-2-amine] | < 100 nM | 122 to 123 °C |  | 
CCCOc1ccc(-n2c(NCc3ccc(Br)cc3)nc3cc(Cl)c(Cl)cc32)cc1 [Example 97, N-(4-Bromobenzyl)-5,6-dichloro-1-(4-propoxyphenyl)-1H-benzimidazol-2-amine] | < 100 nM | 106 to 107 °C |  | 
CC(C)(C)c1ccc(CNc2nc3cc(Cl)c(Cl)cc3n2-c2ccc(OCC(F)(F)F)cc2)cc1 [Example 102, N-(4-tert-Butylbenzyl)-5,6-dichloro-1-[4-(2,2,2-trifluoroethoxy)phenyl]-1H-benzimidazol-2-amine] | < 100 nM | 136 to 137 °C |  | 
CC(C)(C)c1ccc(CNc2nc3cc(Cl)ccc3n2-c2ccc(OCC(F)(F)F)cc2)cc1 [Example 89, N-(4-tert-Butylbenzyl)-5-chloro-1-[4-(2,2,2-trifluoroethoxy)phenyl]-1H-benzimidazol-2-amine] | < 100 nM | 190 to 191 °C |  | 
CCCOc1ccc(-n2c(NCc3ccc(Cl)cc3)nc3ccc(Cl)cc32)cc1 [Example 74, 6-Chloro-N-(4-chlorobenzyl)-1-(4-propoxyphenyl)-1H-benzimidazol-2-amine] | < 100 nM | 130 to 131 °C |  | 
CCOc1ccc(-n2c(NCc3ccc(C(C)(C)C)cc3)nc3cc(Cl)ccc32)cc1 [Example 81, N-(4-tert-Butylbenzyl)-5-chloro-1-(4-ethoxyphenyl)-1H-benzimidazol-2-amine] | < 100 nM | 211 to 212 °C |  | 
CCOc1ccc(-n2c(SCc3ccc(C(F)(F)F)nc3)nc3ccc(Cl)cc32)cc1 [Example 36, 6-chloro-1-(4-ethoxyphenyl)-2-({[6-(trifluoromethyl)pyridin-3-yl]methyl}thio)-1H-benzimidazole] | < 100 nM | 104 to 105 °C |  | 
